Results on nine compounds are retold here after US10858360B2, “Tricyclic gyrase inhibitors” (priority 2011, dated 2020).

Assay type in all cases: cell-based
One test has as its system E. coli ATCC 25922. Put plainly: MIC, E. coli ATCC 25922. The following applies: for MIC: Escherichia coli.
The test system of test [1] is B. thailandensis ATCC E264. Put plainly: microbe, parasite or virus in culture.
Test [2] concerns F. tularensis holarctica LVS. Nature of the test: microbe, parasite or virus in culture. As to conditions: for MIC Ft: Ft = F. tularensis, strain not given.
Another test deals with S. pneumoniae ATCC 51916. Put plainly: MIC, S. pneumoniae ATCC 51916. As to conditions: for MIC: Streptococcus pneumoniae, ATCC51916, Spn = S. pneumoniae.
Test [3] concerns K. pneumoniae ATCC 700603. Nature of the test: MIC, K. pneumoniae ATCC 700603. As to conditions: for MIC Kpn: Kpn = K. pneumoniae; for MIC: Klebsiella pneumoniae, ATCC700603, read-out: MIC Kpn.
For a further test, the system named is A. baumannii ATCC 19606. Nature of the test: MIC, A. baumannii ATCC 19606. As to conditions: strain not given; for MIC: Acinetobacter baumannii, ATCC19606, Ab = A. baumannii.
The test system of another test is S. aureus ATCC 13709. Put plainly: MIC, S. aureus ATCC 13709 (Alamar Blue broth microdilution). As to conditions: for MIC: Staphylococcus aureus. A general note: The colour change of resazurin is a common sign of viable cells or microbes.
A further test concerns Y. pestis CO92 pgm-. Nature of the test: microbe, parasite or virus in culture. The following applies: for MIC Yp: Yp = Y. pestis.
In the next test the test system is P. aeruginosa ATCC 15692. Nature of the test: MIC, P. aeruginosa ATCC 15692. The following applies: for MIC: Pseudomonas aeruginosa, ATCC15692, Pa = P. aeruginosa.
The mark [4] stands for this setting: E. coli, Alamar Blue read after overnight incubation at 35° C.
The mark [5] stands for this setting: S. aureus, Alamar Blue read after overnight incubation at 35° C.
Where [6] appears, read: ATCC25922, E. coli, Alamar Blue read after overnight incubation at 35° C.
The mark [7] stands for this setting: ATCC25922, Ec = E. coli, strain not given.
The mark [8] stands for this setting: ATCC13709, S. aureus, Alamar Blue read after overnight incubation at 35° C.

Converted amounts (≈) assume the structure as drawn. A value given as a limit tells only on which side of the number the result lay.

Consider `CNc1cc(F)cc2c1[nH]c1nc(Oc3cnc(C)nc3)nc(N3C[C@H]4CCN[C@H]4C3)c12` [4.103], for which the “MIC Ec” value against E. coli ATCC 25922 (setting [4]) is ≤0.5 µg/mL; against E. coli ATCC 25922 (Ec = E. coli, strain not given), ≤0.5 µg/mL. In [1], the “MIC Bt” value was ≤0.5 µg/mL. Besides, in test [2], the “MIC Ft” value is 1 µg/mL (≈ 2.3 µM). The “MIC Spn” value with S. pneumoniae ATCC 51916 was ≤0.5 µg/mL. Moreover, the “MIC Kpn” value in [3] was found to be 2 µg/mL (≈ 4.6 µM). For the same compound, in the test on A. baumannii ATCC 19606, the “MIC Ab” value was ≤0.5 µg/mL. Besides, the “MIC Sa” value in the test with S. aureus ATCC 13709 (setting [5]) and against S. aureus ATCC 13709 (Sa = S. aureus) was ≤0.5 µg/mL throughout. Besides, the “MIC Yp” value in the test with Y. pestis CO92 pgm- is ≤0.5 µg/mL. In addition, the “MIC Pa” value against P. aeruginosa ATCC 15692 came out at 2 µg/mL (≈ 4.6 µM).

For the compound `CNc1cc(F)cc2c1[nH]c1nc(Oc3cnc(C)nc3)nc(N3CC4C(N)C4C3)c12` (stereo not shown) [4.073], the “MIC Ec” value against E. coli ATCC 25922 (setting [4]) was ≤0.5 µg/mL; against E. coli ATCC 25922 (Ec = E. coli, strain not given) it was ≤0.5 µg/mL. In addition, the “MIC Bt” value in test [1] was ≤0.5 µg/mL. For the same compound, in test [2], the “MIC Ft” value was found to be 1 µg/mL (≈ 2.38 µM). Besides, the “MIC Spn” value in the test with S. pneumoniae ATCC 51916 was ≤0.5 µg/mL. The “MIC Kpn” value in test [3] worked out at 2 µg/mL (≈ 4.76 µM). Further, the “MIC Ab” value in the test on A. baumannii ATCC 19606 is ≤0.5 µg/mL. Besides, the “MIC Sa” value against S. aureus ATCC 13709 (setting [5]) and with S. aureus ATCC 13709 (Sa = S. aureus) was ≤0.5 µg/mL each time. For the same compound, in the test with Y. pestis CO92 pgm-, the “MIC Yp” value is ≤0.5 µg/mL. The “MIC Pa” value in the test on P. aeruginosa ATCC 15692 is 4 µg/mL (≈ 9.51 µM).

With `CNc1cc(F)cc2c1[nH]c1nc(Oc3cnc4cccnc4c3)nc(N3CC4C(N)C4C3)c12` (stereo not shown) [4.035], the MIC in the test on E. coli ATCC 25922 (setting [6]) was ≤ 0.5 µg/mL; in the test on E. coli ATCC 25922 (setting [7]), ≤ 0.5 µg/mL; in test [1] (Burkholderia thailandensis, ATCCE264, read-out: MIC Bt), ≤ 0.5 µg/mL; in [2] (Francisella tularensis, read-out: MIC Ft), 1 µg/mL (≈ 2.19 µM); against S. pneumoniae ATCC 51916, ≤ 0.5 µg/mL; in test [3], 2 µg/mL (≈ 4.38 µM). The MIC against A. baumannii ATCC 19606 was ≤ 0.5 µg/mL; in the test on S. aureus ATCC 13709 (setting [8]) it was ≤ 0.5 µg/mL; against S. aureus ATCC 13709 (ATCC13709, Sa = S. aureus), ≤ 0.5 µg/mL; in the test on Y. pestis CO92 pgm- (Yersinia pestis, CO92PGM, read-out: MIC Yp), ≤ 0.5 µg/mL; with P. aeruginosa ATCC 15692 it was 4 µg/mL (≈ 8.76 µM).

As for `CNc1cc(F)c(C)c2c1[nH]c1nc(Oc3cnc(C)nc3)nc(N3C[C@H](N)C4(CC4)C3)c12` [6.29], the MIC with E. coli ATCC 25922 (setting [6]) is ≤ 0.5 µg/mL; in the test on E. coli ATCC 25922 (setting [7]), ≤ 0.5 µg/mL; in the test with S. pneumoniae ATCC 51916, ≤ 0.5 µg/mL; in test [3], 2 µg/mL (≈ 4.46 µM); against A. baumannii ATCC 19606, ≤ 0.5 µg/mL; in the test with S. aureus ATCC 13709 (setting [8]), ≤ 0.5 µg/mL. Moreover, the MIC is ≤ 0.5 µg/mL against S. aureus ATCC 13709 (ATCC13709, Sa = S. aureus) and 2 µg/mL (≈ 4.46 µM) in the test on P. aeruginosa ATCC 15692.

As to `CNc1cc(F)cc2c1[nH]c1nc(Oc3cnc(C)nc3)nc(N3C[C@@H]4[C@H](C3)[C@@]4(N)C(N)=O)c12` [4.160], the MIC was 2 µg/mL (≈ 4.32 µM) in the test on E. coli ATCC 25922 (setting [6]); 2 µg/mL (≈ 4.32 µM) against E. coli ATCC 25922 (setting [7]); ≤ 0.5 µg/mL in the test on S. pneumoniae ATCC 51916; > 16 µg/mL in [3]; > 16 µg/mL in the test on A. baumannii ATCC 19606; ≤ 0.5 µg/mL in the test with S. aureus ATCC 13709 (setting [8]). The MIC against S. aureus ATCC 13709 (ATCC13709, Sa = S. aureus) was ≤ 0.5 µg/mL; against P. aeruginosa ATCC 15692, > 16 µg/mL.

For the compound `CNc1cc(F)cc2c1[nH]c1nc(Oc3cnc(C)nc3)nc(N3C[C@@H]4[C@H](N)C[C@]4(C)C3)c12` [4.151], the MIC in the test with E. coli ATCC 25922 (setting [6]) is ≤ 0.5 µg/mL; in the test on E. coli ATCC 25922 (setting [7]), ≤ 0.5 µg/mL; in the test with S. pneumoniae ATCC 51916, ≤ 0.5 µg/mL; in test [3], 1 µg/mL (≈ 2.23 µM); against A. baumannii ATCC 19606, ≤ 0.5 µg/mL; against S. aureus ATCC 13709 (setting [8]), ≤ 0.5 µg/mL. Moreover, the MIC is ≤ 0.5 µg/mL in the test with S. aureus ATCC 13709 (ATCC13709, Sa = S. aureus) and 1 µg/mL (≈ 2.23 µM) in the test on P. aeruginosa ATCC 15692.

In the case of `CNc1cc(F)cc2c1[nH]c1nc(Oc3cnc(C)nc3)nc(N3CC4NCCC4(C)C3)c12` (stereo not shown) [4.157], the MIC is ≤ 0.5 µg/mL in the test on E. coli ATCC 25922 (setting [6]); ≤ 0.5 µg/mL in the test on E. coli ATCC 25922 (setting [7]); ≤ 0.5 µg/mL in the test with S. pneumoniae ATCC 51916; 4 µg/mL (≈ 8.92 µM) in test [3]; ≤ 0.5 µg/mL in the test with A. baumannii ATCC 19606; ≤ 0.5 µg/mL against S. aureus ATCC 13709 (setting [8]). The MIC against S. aureus ATCC 13709 (ATCC13709, Sa = S. aureus) was ≤ 0.5 µg/mL; against P. aeruginosa ATCC 15692, 8 µg/mL (≈ 17.8 µM).

Turning to `CNc1cc(F)cc2c1[nH]c1nc(Oc3cnc(C(C)O)nc3)nc(N3CC4C[C@@H](N)C4C3)c12` (stereo partly shown) [4.409], the MIC in the test on E. coli ATCC 25922 (setting [6]) is ≤ 0.5 µg/mL; with E. coli ATCC 25922 (setting [7]), ≤ 0.5 µg/mL; with S. pneumoniae ATCC 51916, ≤ 0.5 µg/mL; in test [3] it was 4 µg/mL (≈ 8.61 µM); with A. baumannii ATCC 19606, 1 µg/mL (≈ 2.15 µM); in the test with S. aureus ATCC 13709 (setting [8]), ≤ 0.5 µg/mL. In addition, the MIC was ≤ 0.5 µg/mL in the test on S. aureus ATCC 13709 (ATCC13709, Sa = S. aureus) and 1 µg/mL (≈ 2.15 µM) with P. aeruginosa ATCC 15692.

As for `CNc1cc(F)c(F)c2c1[nH]c1nc(Oc3cnc(C)nc3)nc(N3CC4(CCC4N)C3)c12` (stereo not shown) [5.01], in the test on E. coli ATCC 25922 (Ec = E. coli, strain not given), the “MIC Ec” value was ≤0.5 µg/mL. In the test on S. pneumoniae ATCC 51916, the “MIC Spn” value was ≤0.5 µg/mL. Moreover, the “MIC Kpn” value in test [3] came to 1 µg/mL (≈ 2.21 µM). The “MIC Ab” value against A. baumannii ATCC 19606 is ≤0.5 µg/mL. Also, the “MIC Sa” value with S. aureus ATCC 13709 (Sa = S. aureus) is ≤0.5 µg/mL. For the same compound, in the test with P. aeruginosa ATCC 15692, the “MIC Pa” value is ≤0.5 µg/mL.
